Here are results for 37 compounds from US20150246902A1, “SUBSTITUED BENZOFURAN COMPOUNDS AND METHODS OF USE THEREOF FOR THE TREATMENT OF VIRAL DISEASES” (priority 2011, published 2015).

A word on the IC50: it is the concentration that inhibits the measured activity by half. The low end stands for greater potency in that assay, the high end for weaker potency in that assay.

For experiment [1], the system named is HCV replicon genotype 1a. The experiment in a line: microbe, parasite or virus in culture. Format: cell-based. Conditions: Hepatitis C virus, 96 h, HCV genotype 1a replicon cells, 96 hours incubation, NS3/4A ELISA readout. (In general: A replicon is a self-replicating genome or part of one, used to study replication in cells.)
The test system of experiment [2] is HCV replicon genotype 1b. The experiment in a line: microbe, parasite or virus in culture. Format: cell-based. Conditions: Hepatitis C virus, 96 h, HCV genotype 1b replicon cells, 96 hours incubation, NS3/4A ELISA readout.

Take `CNC(=O)c1c(-c2ccc(F)cc2)oc2cc(N(C)S(C)(=O)=O)c(-c3cc4c(cn3)ncn4-c3ccc(F)cc3)cc12` [Compound 46]: the IC50 in experiment [1] came to 74.5 nM; in experiment [2], 10.7 nM.

With `CNC(=O)c1c(-c2ccc(F)cc2)oc2cc(N(C)S(C)(=O)=O)c(-c3cnc4ccn(-c5ccc(F)cc5)c4c3)cc12` [Compound 47, 2-(4-fluorophenyl)-5-(1-(4-fluorophenyl)-1H-pyrrolo[3,2-b]pyridin-6-yl)-N-methyl-6-(N-methylmethylsulfonamido)benzofuran-3-carboxamide], the IC50 is 2.1 nM in experiment [1] and 1.5 nM in experiment [2].

In the case of `CNC(=O)c1c(-c2ccc(F)cc2)oc2cc(N(C)S(C)(=O)=O)c(-c3cnc4ccn(-c5ccc(C(F)(F)F)cc5)c4c3)cc12` [Compound 48], the IC50 in experiment [1] was determined as 2.6 nM; in experiment [2], 3.3 nM.

As to `CNC(=O)c1c(-c2ccc(F)cc2)oc2cc(N(C)S(C)(=O)=O)c(-c3cnc4ccn(-c5ccc(C#N)cc5)c4c3)cc12` [Compound 49], the IC50 in experiment [1] was found to be 8.3 nM; in experiment [2], 3.3 nM.

For the compound `CNC(=O)c1c(-c2ccc(F)cc2)oc2cc(N(C)S(C)(=O)=O)c(-c3cnc4ccn(-c5ccc(Cl)cc5)c4c3)cc12` [Compound 50], the results for the IC50 in experiment [1] and in experiment [2] were 3.2 nM and 4.1 nM, respectively.

`CNC(=O)c1c(-c2ccc(F)cc2)oc2cc(N(C)S(C)(=O)=O)c(-c3ccc4ccn(-c5ccncc5)c4c3)cc12` [Compound 51]: the IC50 in experiment [1] was 34.6 nM; in experiment [2], 7.8 nM.

Take `CNC(=O)c1c(-c2ccc(F)cc2)oc2cc(N(C)S(C)(=O)=O)c(-c3ccc4ccn(-c5cccnc5)c4c3)cc12` [Compound 52]: the IC50 in experiment [1] was found to be 42.9 nM; in experiment [2], 7.1 nM.

As to `CNC(=O)c1c(-c2ccc(F)cc2)oc2cc(N(C)S(C)(=O)=O)c(-c3ccc4c(ccn4-c4ccccc4)c3)cc12` [Compound 53], the figures for the IC50 in experiment [1] and in experiment [2] were 82 nM and 12.5 nM, respectively.

As to `CNC(=O)c1c(-c2ccc(F)cc2)oc2cc(N(C)S(C)(=O)=O)c(-c3ccc4c(ccn4-c4ccc(F)cc4)c3)cc12` [Compound 54], the IC50 in experiment [1] is 109 nM; in experiment [2], 14.1 nM.

As to `CNC(=O)c1c(-c2ccc(F)cc2)oc2cc(N(C)S(C)(=O)=O)c(-c3ccc4c(ccn4-c4cccc(F)c4)c3)cc12` [Compound 55], the IC50 stood at 152 nM in experiment [1] and 23.8 nM in experiment [2].

As to `CNC(=O)c1c(-c2ccc(F)cc2)oc2cc(N(C)S(C)(=O)=O)c(-c3ccc4c(ccn4-c4ccc(C(F)(F)F)cc4)c3)cc12` [Compound 56], the IC50 in experiment [1] was determined as 224 nM; in experiment [2], 30.8 nM.

As to `CNC(=O)c1c(-c2ccc(F)cc2)oc2cc(N(C)S(C)(=O)=O)c(-c3ccc4c(ccn4-c4cccnc4)c3)cc12` [Compound 57], the IC50 in experiment [1] was 13.9 nM; in experiment [2], 3 nM.

Regarding `CNC(=O)c1c(-c2ccc(F)cc2)oc2cc(N(C)S(C)(=O)=O)c(-c3ccc4c(ccn4-c4ccncc4)c3)cc12` [Compound 58], the IC50 worked out at 7.2 nM in experiment [1] and 2.6 nM in experiment [2].

As to `CNC(=O)c1c(-c2ccc(F)cc2)oc2cc(N(C)S(C)(=O)=O)c(-c3ccc4ccn(-c5ccc(F)cc5)c4c3)cc12` [Compound 59], the results for the IC50 in experiment [1] and in experiment [2] were 15.3 nM and 5.2 nM, respectively.

On to `CNC(=O)c1c(-c2ccc(F)cc2)oc2cc(N(C)S(C)(=O)=O)c(-c3ccc4ccn(-c5cccc(F)c5)c4c3)cc12` [Compound 60], for which the IC50 in experiment [1] was found to be 45.4 nM; in experiment [2], 4.4 nM.

Consider `CNC(=O)c1c(-c2ccc(F)cc2)oc2cc(N(C)S(C)(=O)=O)c(-c3ccc4ccn(-c5ccc(C(F)(F)F)cc5)c4c3)cc12` [Compound 61], for which the figures for the half-inhibitory concentration (IC50) in experiment [1] and in experiment [2] were 34.2 nM and 10.1 nM, respectively.

Take `CNC(=O)c1c(-c2ccc(F)cc2)oc2cc(N(C)S(C)(=O)=O)c(-c3ccc4[nH]ccc4c3)cc12` [Compound 62]: the IC50 turned out to be 183 nM in experiment [1] and 22.9 nM in experiment [2].

Take `CNC(=O)c1c(-c2ccc(F)cc2)oc2cc(N(C)S(C)(=O)=O)c(-c3ccc4ccn(-c5ccccc5)c4c3)cc12` [Compound 63]: the half-inhibitory concentration (IC50) was found to be 23.5 nM in experiment [1] and 7.2 nM in experiment [2].

With `CNC(=O)c1c(-c2ccc(F)cc2)oc2cc(N(C)S(C)(=O)=O)c(-c3ccc4ccn(-c5ccc(F)cc5)c4n3)cc12` [Compound 64], the IC50 in experiment [1] stood at 409 nM; in experiment [2], 76.1 nM.

Take `CNC(=O)c1c(-c2ccc(F)cc2)oc2cc(N(C)S(C)(=O)=O)c(-c3ccc4ccn(-c5cc(F)cc(F)c5)c4n3)cc12` [Compound 65]: the IC50 came to 1520 nM in experiment [1] and 115 nM in experiment [2].

For the compound `CNC(=O)c1c(-c2ccc(F)cc2)oc2cc(N(C)S(C)(=O)=O)c(-c3ccc4ccn(-c5ccc(F)cc5F)c4n3)cc12` [Compound 66], the IC50 turned out to be 2270 nM in experiment [1] and 225 nM in experiment [2].

Turning to `CNC(=O)c1c(-c2ccc(F)cc2)oc2cc(N(C)S(C)(=O)=O)c(-c3ccc4ccn(Cc5ccc(C(F)(F)F)cc5)c4c3)cc12` [Compound 67, 2-(4-fluorophenyl)-N-methyl-6-(N-methylmethylsulfonamido)-5-(1-(4-(trifluoromethyl)benzyl)-1H-indol-6-yl)benzofuran-3-carboxamide], the half-maximal inhibitory concentration (IC50) in experiment [1] turned out to be 132 nM; in experiment [2], 49.8 nM.

On to `CNC(=O)c1c(-c2ccc(F)cc2)oc2cc(N(C)S(C)(=O)=O)c(-c3ccc4ccn(Cc5ccc(F)cc5)c4c3)cc12` [Compound 68], for which the IC50 in experiment [1] is 54.2 nM; in experiment [2] it was 18.6 nM.

Turning to `CNC(=O)c1c(-c2ccc(F)cc2)oc2cc(N(C)S(C)(=O)=O)c(-c3ccc4ccn(CCO)c4c3)cc12` [Compound 69], the IC50 in experiment [1] came out at 147 nM; in experiment [2], 17.4 nM.

For `CNC(=O)c1c(-c2ccc(F)cc2)oc2cc(N(C)S(C)(=O)=O)c(-c3ccc4[nH]cc(-c5ccccc5)c4c3)cc12` [Compound 70, 2-(4-fluorophenyl)-N-methyl-6-(N-methylmethylsulfonamido)-5-(3-phenyl-1H-indol-5-yl)benzofuran-3-carboxamide], the IC50 in experiment [1] amounted to 17.8 nM; in experiment [2], 11.3 nM.

In the case of `CNC(=O)c1c(-c2ccc(F)cc2)oc2cc(N(C)S(C)(=O)=O)c(-c3ccc4[nH]cc(-c5ccncc5)c4c3)cc12` [Compound 71], the IC50 in experiment [1] turned out to be 21.5 nM; in experiment [2] it was 4.5 nM.

As to `CNC(=O)c1c(-c2ccc(F)cc2)oc2cc(N(C)S(C)(=O)=O)c(-c3ccc4[nH]nc(-c5ccc(F)cc5)c4c3)cc12` [Compound 73, 2-(4-fluorophenyl)-5-(3-(4-fluorophenyl)-1H-indazol-5-yl)-N-methyl-6-(N-methylmethylsulfonamido)benzofuran-3-carboxamide], the IC50 in experiment [1] is 3.9 nM; in experiment [2], 3.8 nM.

On to `CNC(=O)c1c(-c2ccc(F)cc2)oc2cc(N(C)S(C)(=O)=O)c(-c3ccc4[nH]nc(-c5ccncc5)c4c3)cc12` [Compound 74], for which the IC50 in experiment [1] came to 20.6 nM; in experiment [2] it was 5.4 nM.

Take `CNC(=O)c1c(-c2ccc(F)cc2)oc2cc(N(C)S(C)(=O)=O)c(-c3ccc4[nH]nc(-c5ccc(C(F)(F)F)cc5)c4c3)cc12` [Compound 75]: the IC50 in experiment [1] came out at 8 nM; in experiment [2], 7.3 nM.

For `CNC(=O)c1c(-c2ccc(F)cc2)oc2cc(N(C)S(C)(=O)=O)c(-c3ccc4[nH]nc(-c5ccc(Cl)cc5)c4c3)cc12` [Compound 76], the IC50 in experiment [1] was determined as 6.8 nM; in experiment [2], 5.8 nM.

For `CNC(=O)c1c(-c2ccc(F)cc2)oc2cc(N3CCCC3=O)c(-c3ccc4ncn(-c5ccccc5)c4c3)cc12` [Compound 77, 2-(4-fluorophenyl)-N-methyl-6-(2-oxopyrrolidin-1-yl)-5-(1-phenyl-1H-benzo[d]imidazol-6-yl)benzofuran-3-carboxamide], the IC50 came out at 235 nM in experiment [1] and 32.6 nM in experiment [2].

With `CNC(=O)c1c(-c2ccc(F)cc2)oc2cc(N(C)S(C)(=O)=O)c(-c3cc(OC)c4nc(N)n(-c5cc(F)cc(F)c5)c4c3)cc12` [Compound 78, 5-(2-amino-1-(3,5-difluorophenyl)-4-methoxy-1H-benzo[d]imidazol-6-yl)-2-(4-fluorophenyl)-N-methyl-6-(N-methylmethylsulfonamido)benzofuran-3-carboxamide], the IC50 in experiment [1] stood at 19 nM; in experiment [2], 5.3 nM.

Consider `CNC(=O)c1c(-c2ccc(F)cc2)oc2cc(N(C)S(C)(=O)=O)c(-c3cc(F)c4nc(N)n(-c5cc(F)cc(F)c5)c4c3)cc12` [Compound 79], for which the IC50 was found to be 31.4 nM in experiment [1] and 3.1 nM in experiment [2].

`CNC(=O)c1c(-c2ccc(F)cc2)oc2cc(N(C)S(C)(=O)=O)c(-c3cc(OC)c4[nH]c(=O)n(-c5cc(F)cc(F)c5)c4c3)cc12` [Compound 80, 5-(3-(3,5-difluorophenyl)-7-methoxy-2-oxo-2,3-dihydro-1H-benzo[d]imidazol-5-yl)-2-(4-fluorophenyl)-N-methyl-6-(N-methylmethylsulfonamido)benzofuran-3-carboxamide]: the IC50 in experiment [1] was determined as 9 nM; in experiment [2] it was 6.6 nM.

Turning to `CNC(=O)c1c(-c2ccc(F)cc2)oc2cc(N(C)S(C)(=O)=O)c(-c3cc(F)c4[nH]c(=O)n(-c5cc(F)cc(F)c5)c4c3)cc12` [Compound 81], the IC50 turned out to be 30.3 nM in experiment [1] and 5.2 nM in experiment [2].

For the compound `CNC(=O)c1c(-c2ccc(F)cc2)oc2cc(N(C)S(C)(=O)=O)c(-c3ccc4[nH]c(=O)n(-c5ccc(F)cc5)c4c3)cc12` [Compound 82], the values for the IC50 in experiment [1] and in experiment [2] were 23 nM and 4.9 nM, respectively.

Regarding `CNC(=O)c1c(-c2ccc(F)cc2)oc2cc(N(C)S(C)(=O)=O)c(-c3ccc4onc(-c5ccccc5)c4c3)cc12` [Compound 83, 2-(4-fluorophenyl)-N-methyl-6-(N-methylmethylsulfonamido)-5-(3-phenylbenzo[d]isoxazol-5-yl)benzofuran-3-carboxamide], the IC50 worked out at 23.6 nM in experiment [1] and 14.7 nM in experiment [2].
